Data: ChEMBL document CHEMBL1909046, “DrugMatrix in vitro pharmacology data”

Tests used:
[1] = molecular target: T1, Angiotensin-converting enzyme (Oryctolagus cuniculus, UniProt P12822); format: tissue-based, Lung;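 also: enzymatic inhibition of angiotensin-converting enzyme measured with FAPGG as the substrate; in other assays of this panel Not Active means under 50% inhibition at 10 µM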
T1 sequence (P12822 whole entry): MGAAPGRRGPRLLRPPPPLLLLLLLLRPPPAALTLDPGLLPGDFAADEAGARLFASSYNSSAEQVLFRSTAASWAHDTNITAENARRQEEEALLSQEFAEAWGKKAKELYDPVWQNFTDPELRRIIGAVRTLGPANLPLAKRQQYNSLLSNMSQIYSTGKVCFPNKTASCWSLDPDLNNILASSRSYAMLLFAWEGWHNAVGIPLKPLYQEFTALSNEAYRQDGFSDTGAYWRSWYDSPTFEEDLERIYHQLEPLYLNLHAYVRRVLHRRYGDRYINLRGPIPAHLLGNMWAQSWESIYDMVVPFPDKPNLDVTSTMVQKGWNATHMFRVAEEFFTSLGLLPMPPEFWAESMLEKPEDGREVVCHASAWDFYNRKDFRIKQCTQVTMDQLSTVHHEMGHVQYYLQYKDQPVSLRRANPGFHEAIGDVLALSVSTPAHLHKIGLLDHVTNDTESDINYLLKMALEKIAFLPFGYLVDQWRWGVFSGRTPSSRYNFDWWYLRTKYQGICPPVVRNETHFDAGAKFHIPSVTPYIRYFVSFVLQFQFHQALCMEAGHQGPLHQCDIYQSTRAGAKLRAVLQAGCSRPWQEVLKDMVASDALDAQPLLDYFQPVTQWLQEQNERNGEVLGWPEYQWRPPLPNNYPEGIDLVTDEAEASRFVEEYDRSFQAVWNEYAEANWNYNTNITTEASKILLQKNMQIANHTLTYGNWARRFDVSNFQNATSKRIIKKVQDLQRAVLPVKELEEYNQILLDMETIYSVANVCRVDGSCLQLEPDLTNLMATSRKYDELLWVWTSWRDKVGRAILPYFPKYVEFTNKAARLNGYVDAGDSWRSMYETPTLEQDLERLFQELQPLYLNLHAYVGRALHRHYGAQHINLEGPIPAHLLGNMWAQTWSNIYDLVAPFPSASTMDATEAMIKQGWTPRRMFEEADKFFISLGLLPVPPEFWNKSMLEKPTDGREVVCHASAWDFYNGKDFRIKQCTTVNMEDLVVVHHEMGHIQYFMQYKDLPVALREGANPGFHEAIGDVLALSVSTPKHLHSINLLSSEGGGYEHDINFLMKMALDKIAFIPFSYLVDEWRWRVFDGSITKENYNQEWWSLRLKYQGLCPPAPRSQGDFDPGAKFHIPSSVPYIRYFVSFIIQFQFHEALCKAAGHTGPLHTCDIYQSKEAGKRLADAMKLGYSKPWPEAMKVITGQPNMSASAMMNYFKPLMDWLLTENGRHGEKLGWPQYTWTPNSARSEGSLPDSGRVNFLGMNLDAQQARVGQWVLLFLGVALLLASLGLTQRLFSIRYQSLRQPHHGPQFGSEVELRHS

[2] = molecular target: Delta-type opioid receptor (Homo sapiens, UniProt P41143); format: cell membranes, HEK293, Membrane; conditions: hek293; also: in other assays of this panel Not Active means under 50% inhibition at 10 µM
[3] = DRUGMATRIX: Tumor Necrosis Factor (TNF), Non-Selective radioligand binding (ligand: [125I] TNF-alpha); format: cell membranes, Membrane; conditions: u-937; Not Active = under 50% inhibition at 10 µM
D(3) dopamine receptor = D(3) dopamine receptor (Homo sapiens, UniProt P35462); assay: DRUGMATRIX: Dopamine D3 radioligand binding (ligand: [3H] Spiperone); format: cell membranes, CHO, Membrane; conditions: cho
Cytochrome P450 1A2 = molecular target: T2, Cytochrome P450 1A2 (Homo sapiens, UniProt P05177); conditions: bti-tn-5b1-4; also: in other assays of this panel Not Active means under 50% inhibition at 10 µM
T2 sequence (P05177 whole entry): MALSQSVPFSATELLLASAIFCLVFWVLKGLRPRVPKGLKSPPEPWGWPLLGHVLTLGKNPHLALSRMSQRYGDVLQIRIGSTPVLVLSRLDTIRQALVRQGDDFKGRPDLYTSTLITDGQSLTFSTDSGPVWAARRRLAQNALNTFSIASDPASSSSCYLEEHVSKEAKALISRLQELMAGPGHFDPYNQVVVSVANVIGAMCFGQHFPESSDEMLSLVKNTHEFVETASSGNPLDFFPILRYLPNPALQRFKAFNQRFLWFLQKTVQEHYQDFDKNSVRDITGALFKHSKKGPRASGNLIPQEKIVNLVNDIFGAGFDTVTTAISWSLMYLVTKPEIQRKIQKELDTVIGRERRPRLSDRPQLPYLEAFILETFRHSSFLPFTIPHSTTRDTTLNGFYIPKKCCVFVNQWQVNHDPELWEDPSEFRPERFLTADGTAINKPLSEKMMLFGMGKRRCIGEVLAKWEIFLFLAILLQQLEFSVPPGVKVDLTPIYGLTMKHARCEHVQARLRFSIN

[4] = molecular target: T3, Alpha-1D adrenergic receptor (Homo sapiens, UniProt P25100); format: cell membranes, HEK293, Membrane; conditions: hek293; also: in other assays of this panel Not Active means under 50% inhibition at 10 µM
T3 sequence (P25100 whole entry): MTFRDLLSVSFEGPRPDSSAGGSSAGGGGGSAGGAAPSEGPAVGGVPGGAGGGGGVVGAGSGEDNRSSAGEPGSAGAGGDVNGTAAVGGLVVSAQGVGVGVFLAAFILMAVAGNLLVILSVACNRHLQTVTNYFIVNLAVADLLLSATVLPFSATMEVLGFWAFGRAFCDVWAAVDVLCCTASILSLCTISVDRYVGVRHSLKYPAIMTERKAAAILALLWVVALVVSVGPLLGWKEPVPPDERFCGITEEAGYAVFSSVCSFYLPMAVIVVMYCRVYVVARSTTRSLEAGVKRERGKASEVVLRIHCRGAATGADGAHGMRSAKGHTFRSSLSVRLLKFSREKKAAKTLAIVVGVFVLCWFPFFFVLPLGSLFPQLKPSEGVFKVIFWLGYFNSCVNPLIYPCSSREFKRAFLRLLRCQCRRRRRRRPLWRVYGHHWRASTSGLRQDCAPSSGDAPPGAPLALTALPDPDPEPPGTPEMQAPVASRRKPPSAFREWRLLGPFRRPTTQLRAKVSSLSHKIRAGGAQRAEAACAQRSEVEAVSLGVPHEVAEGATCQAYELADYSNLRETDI

D(3) dopamine receptor, sequence (P35462 whole entry): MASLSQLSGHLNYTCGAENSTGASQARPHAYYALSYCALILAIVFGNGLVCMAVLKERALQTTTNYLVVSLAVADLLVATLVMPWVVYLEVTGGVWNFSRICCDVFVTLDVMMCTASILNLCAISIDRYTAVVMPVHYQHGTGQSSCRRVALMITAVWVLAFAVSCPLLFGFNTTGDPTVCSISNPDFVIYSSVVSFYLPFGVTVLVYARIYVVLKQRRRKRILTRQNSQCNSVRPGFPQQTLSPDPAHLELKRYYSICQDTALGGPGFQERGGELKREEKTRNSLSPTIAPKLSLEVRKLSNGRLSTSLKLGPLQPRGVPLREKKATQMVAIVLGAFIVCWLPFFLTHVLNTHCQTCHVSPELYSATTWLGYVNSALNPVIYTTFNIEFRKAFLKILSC
Delta-type opioid receptor, sequence (P41143 whole entry): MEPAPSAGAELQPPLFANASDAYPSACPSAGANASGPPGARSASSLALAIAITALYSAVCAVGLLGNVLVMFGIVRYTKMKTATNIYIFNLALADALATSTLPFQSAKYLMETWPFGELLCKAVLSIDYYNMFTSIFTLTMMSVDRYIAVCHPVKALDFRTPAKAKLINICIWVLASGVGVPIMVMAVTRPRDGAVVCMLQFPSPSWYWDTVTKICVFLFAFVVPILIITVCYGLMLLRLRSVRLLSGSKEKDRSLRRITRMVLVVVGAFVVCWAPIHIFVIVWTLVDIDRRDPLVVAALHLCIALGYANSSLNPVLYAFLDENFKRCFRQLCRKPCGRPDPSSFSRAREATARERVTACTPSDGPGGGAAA

CC[C@]1(O)C[C@@H]2CN(CCc3c([nH]c4ccccc34)[C@@](C(=O)OC)(c3cc4c(cc3OC)N(C)[C@H]3[C@@](O)(C(N)=O)[C@H](O)[C@]5(CC)C=CCN6CC[C@]43[C@@H]65)C2)C1 [VINDESINE]
Not Active: IC50 [1] | IC50 [2] | IC50 [3] | Ki [3] | IC50 (D(3) dopamine receptor) | IC50 (Cytochrome P450 1A2) | Ki (Cytochrome P450 1A2) | IC50 [4]

CCN(C(C)=O)c1cccc(-c2ccnc3c(C#N)cnn23)c1 [ZALEPLON]
Not Active: IC50 [1] | IC50 [2] | IC50 [3] | Ki [3] | IC50 (D(3) dopamine receptor) | IC50 (Cytochrome P450 1A2) | Ki (Cytochrome P450 1A2) | IC50 [4]

COBALTOUS CHLORIDE
Not Active: IC50 [1] | Ki [1] | IC50 [2] | Ki [2] | IC50 [3] | Ki [3] | IC50 (D(3) dopamine receptor) | Ki (D(3) dopamine receptor) | IC50 (Cytochrome P450 1A2) | Ki (Cytochrome P450 1A2) | IC50 [4] | Ki [4]

COLISTIN
Not Active: IC50 [1] | Ki [1] | IC50 [2] | Ki [2] | IC50 [3] | Ki [3] | IC50 (D(3) dopamine receptor) | Ki (D(3) dopamine receptor) | IC50 (Cytochrome P450 1A2) | Ki (Cytochrome P450 1A2) | IC50 [4] | Ki [4]
